Source: patent publication US8258256B2, “Compositions and methods for the treatment of cancer” (The Johns Hopkins University, priority 2006, dated 2012)
Values belong to the compound of their own block, whether it stands above or below them. Bridge positions count the residues as written; N and C are the ends. Primed or numbered codes have the meaning given here. Ends that are not written are not given here. Peptide text beside a SMILES is read from it. I, II: the chains in the order shown. * marks the point of attachment. Biotin = O=C1N[C@H]2[C@H](CS[C@H]2CCCCC(=O)*)N1; FITC′ = fluorescein isothiocyanate label

Legend:
His-PSMA [1] = biological target: T1, His-PSMA (Homo sapiens, UniProt Q04609); assay: PSMA enzymatic assay (NAALADase activity, 3H-NAAG hydrolysis); format: biochemical; details: ratio of inhibitory potency, dimeric vs monomeric peptide
T1 construct: made in house; host or cells: Drosophila Schneider's S2 cells, vector pMT/BiP/V5-HisA (pMT-His-PSMA), purified from conditioned media on Ni-NTA
T1 sequence (Q04609 44-750 limits assumed): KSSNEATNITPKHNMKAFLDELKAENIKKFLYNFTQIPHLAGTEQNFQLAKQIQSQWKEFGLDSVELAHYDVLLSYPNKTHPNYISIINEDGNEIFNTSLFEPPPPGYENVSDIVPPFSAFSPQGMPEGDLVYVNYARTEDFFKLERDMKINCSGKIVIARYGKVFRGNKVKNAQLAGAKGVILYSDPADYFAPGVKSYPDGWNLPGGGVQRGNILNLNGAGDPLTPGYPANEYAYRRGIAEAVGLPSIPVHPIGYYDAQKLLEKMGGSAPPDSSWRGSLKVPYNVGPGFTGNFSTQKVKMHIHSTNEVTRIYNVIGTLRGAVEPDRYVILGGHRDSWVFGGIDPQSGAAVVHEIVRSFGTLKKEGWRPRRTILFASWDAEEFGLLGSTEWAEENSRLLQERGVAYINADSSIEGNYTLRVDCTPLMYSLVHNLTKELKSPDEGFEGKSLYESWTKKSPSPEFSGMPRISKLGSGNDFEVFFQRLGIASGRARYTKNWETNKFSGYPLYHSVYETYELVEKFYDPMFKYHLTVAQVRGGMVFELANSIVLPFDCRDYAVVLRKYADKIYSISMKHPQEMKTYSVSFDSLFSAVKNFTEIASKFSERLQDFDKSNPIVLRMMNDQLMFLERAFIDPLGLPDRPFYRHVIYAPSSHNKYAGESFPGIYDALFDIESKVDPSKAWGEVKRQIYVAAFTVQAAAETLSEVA
Description: FIG. 4 depicts the inhibition of NAALADase activity of PSMA by monomeric and dimeric peptides. His-PSMA hydrolysis of ^3H-NAAG was assayed as described in the methods in the absence or presence of indicated concentration of monomeric or dimeric peptide. After 15 min incubation at 37° C. amount of released 3H-Glu was determined. Percent inhibition is the ratio of amount of 3H-Glu released in presence of peptide compared to control (i.e. His-PSMA only). Data plotted are average of duplicate experiments and best fit line is included.
(§1) PSMA Enzymatic Assay The enzymatic activity assay for PSMA was adapted as previously described by Tiffany et al. (21). PSMA (5 nM) incubated with or without peptides was added to PSMA assay buffer (10 mM CoCl2, 50 mM Tris, pH 7.4). Following a 30 mins incubation at 37° C., N-acetyl-aspartyl-3H glutamate (3H-NAAG) (NEN, Boston, Mass.) was added to final concentration of 25 nM and reactions incubated for 15 mins at 37° C. Data were collected during linear phase of hydrolysis (i.e. less than 20% cleavage of total substrate).

PSMA = biological target: T2, PSMA (Homo sapiens, UniProt Q04609); assay: Soluble biotinylated peptide binding to immobilized PSMA or BSA; details: biotinylated peptide incubated with immobilized PSMA (0.625 μgs) or BSA
T2 construct: made in house; host or cells: Drosophila Schneider's S2 cells, vector pMT/BiP/V5-HisA (pMT-His-PSMA), purified from conditioned media on Ni-NTA
T2 sequence (Q04609 44-750 limits assumed): as above
Description: FIGS. 3A-B depict (A) Soluble […] (Biotin) (SEQ ID NO: 37) peptide binding to BSA and PSMA. Recombinant PSMA (0.625 μgs) and BSA (25 μgs/ml) were immobilized and indicated concentrations of the biotinylated […] (SEQ ID NO:1) peptide were incubated with immobilized PSMA or BSA. […] (B) Comparison of PSMA binding to monomeric (SEQ ID NO: 37) and dimeric (core peptide disclosed as SEQ ID NO: 1) form of the […] (SEQ ID NO:1) peptide. Biotin labeled monomeric and dimeric peptide were immobilized on streptavidin-coated plates then incubated with His-PSMA (100 nM). Results are the mean binding in 4 replicate wells each ±S.D.
Soluble Synthetic […] (SEQ ID NO:1) peptide binds selectively to PSMA—On the basis of the phage binding results, the […] (SEQ ID NO:1) peptide was synthesized with biotin coupled to the C-terminus.

His-PSMA [2] = biological target: T1, His-PSMA; details: substrate hydrolysis by PSMA, reference (21); cited from earlier work
[3] = tested on: PSMA-positive (LNCaP, CWR22R) human prostate cancer cells; assay: Fluorescent peptide binding to PSMA-positive prostate cancer cells (confocal microscopy); format: cell-based
Description: FIG. 5 depicts dimeric […] (SEQ ID NO:1) peptide binds selectively to PSMA-producing prostate cancer cells. Attached PSMA-positive (LNCaP, CWR22R) and PSMA-negative (PC-3, DU145) human prostate cancer were prelabeled with Orange Cell Tracker (Invitrogen) at 2.5 μM in RPMI for 30 mins. After washing with Hanks balanced salt solution, cells were incubated with FITC-labeled monomeric (50 μM) or dimeric (5 μM) […] (SEQ ID NO:1) peptide in 1% fetal calf serum containing media for 1 hr. Cells were washed 3 times with PBS and fixed with 1% Formalin for ½ hr at room temperature. Cells were visualized using Zeiss Meta 510 confocal microscope at 20× magnification. Top panels show orange cell tracker labeled cells (rhodamine filter set); middle panels show labeled peptide binding (FITC filter set); bottom panel show overlay of both panels.
Binding of […] (SEQ ID NO:1) peptides to PSMA-expressing cell lines—To analyze peptide binding to membrane bound PSMA, fluorescently labeled peptides were synthesized by coupling FITC to the C-terminus of either the monomeric or dimeric peptide. […] In contrast, cell binding of the dimeric […] (SEQ ID NO:1) peptide could be easily visualized at concentrations as low as 5 μM, FIG. 5. Labeled, dimeric peptide bound to a similar degree to both CWR22R and LNCAP.

[4] = biological target: T3, full length membrane bound form of PSMA (Homo sapiens, UniProt Q04609); assay: NAAG hydrolysis assay with cell lysates from PSMA-producing LNCaP; format: biochemical; details: peptide at 60 μM
T3 construct: endogenous in cells; host or cells: LNCaP cell lysate
T3 sequence (Q04609 whole entry): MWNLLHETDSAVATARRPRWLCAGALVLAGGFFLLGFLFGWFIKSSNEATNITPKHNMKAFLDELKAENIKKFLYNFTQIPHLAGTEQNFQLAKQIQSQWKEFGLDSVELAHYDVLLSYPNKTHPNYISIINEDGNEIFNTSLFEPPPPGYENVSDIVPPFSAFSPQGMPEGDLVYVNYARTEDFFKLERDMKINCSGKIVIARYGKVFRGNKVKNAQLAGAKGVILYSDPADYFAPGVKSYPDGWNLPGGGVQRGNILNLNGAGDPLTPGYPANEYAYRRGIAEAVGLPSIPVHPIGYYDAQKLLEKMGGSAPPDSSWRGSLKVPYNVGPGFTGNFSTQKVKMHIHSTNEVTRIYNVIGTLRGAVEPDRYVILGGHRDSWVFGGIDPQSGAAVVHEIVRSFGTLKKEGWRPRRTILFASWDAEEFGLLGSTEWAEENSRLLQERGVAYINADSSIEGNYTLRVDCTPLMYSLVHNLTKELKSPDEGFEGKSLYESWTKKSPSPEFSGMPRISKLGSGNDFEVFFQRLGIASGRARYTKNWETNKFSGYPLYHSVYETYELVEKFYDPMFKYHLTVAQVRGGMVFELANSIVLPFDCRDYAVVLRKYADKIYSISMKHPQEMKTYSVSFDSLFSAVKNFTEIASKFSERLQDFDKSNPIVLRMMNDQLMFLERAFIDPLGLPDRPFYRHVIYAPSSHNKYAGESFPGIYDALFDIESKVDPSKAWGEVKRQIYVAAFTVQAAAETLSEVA
Description: as §1
[…] (SEQ ID NO:1) peptide inhibits PSMA's enzyme activity—Functionally, PSMA has been classified as a glutamate carboxypeptidase II (25) with activity as both an N-acetylated α-linked acidic dipeptidase (NAALADase) (26) and as a pteroyl poly-γ-glutamyl carboxypeptidase (i.e. folate hydrolase) (27). […] Therefore, the monomeric and dimeric […] (SEQ ID NO:1) peptides were incubated initially with PSMA for 30 mins and then ^3H NAAG substrate was added to prevent any NAAG hydrolysis before the peptide is able to bind to PSMA. Control peptides included the […] (SEQ ID NO: 22) peptide and a short peptide HHWA (SEQ ID NO: 26) containing the apparent consensus motif from the phage display. […] In a second experiment, cell lysates from PSMA-producing LNCaP were used instead of purified recombinant His-PSMA.

PSMA inhibition of dimer relative to monomer (His-PSMA [1]): ~10 fold
Compound: CC(C)C[C@H](NC(=O)[C@@H](NC(=O)[C@H](C)NC(=O)[C@H](Cc1c[nH]c2ccccc12)NC(=O)[C@H](Cc1c[nH]cn1)NC(=O)[C@H](Cc1c[nH]cn1)NC(=O)[C@H](C)NC(=O)[C@@H](NC(=O)[C@H](CC(=O)O)NC(=O)[C@@H]1CCCN1C(=O)[C@H](CCC(N)=O)NC(=O)[C@@H](N)Cc1c[nH]c2ccccc12)[C@@H](C)O)[C@@H](C)O)C(=O)NCCCC[C@H](NC(=O)[C@H](CC(C)C)NC(=O)[C@@H](NC(=O)[C@H](C)NC(=O)[C@H](Cc1c[nH]c2ccccc12)NC(=O)[C@H](Cc1c[nH]cn1)NC(=O)[C@H](Cc1c[nH]cn1)NC(=O)[C@H](C)NC(=O)[C@@H](NC(=O)[C@H](CC(=O)O)NC(=O)[C@@H]1CCCN1C(=O)[C@H](CCC(N)=O)NC(=O)[C@@H](N)Cc1c[nH]c2ccccc12)[C@@H](C)O)[C@@H](C)O)C(=O)N[C@@H](CCCCNC(=O)CCCC[C@@H]1SC[C@@H]2NC(=O)N[C@@H]21)C(=O)O (I: H-WQPDTAHHWATLKK(Biotin)-OH / II: H-WQPDTAHHWATL; amide I:13-II:C; N-terminus assumed)

Compound: WQPDTAHHWATLK(Biotin)
binding to immobilized PSMA compared to BSA (PSMA): significantly higher binding to PSMA at peptide concentrations of 50 μM and 500 μM

Compound: CC(=O)N[C@@H](CC(=O)O)C(=O)N[C@@H](CCC(=O)O)C(=O)O [^3H NAAG, N-acetyl-aspartyl-3H glutamate] (Ac-Asp-Glu-OH)
Km (His-PSMA [2]): 0.43 µM
kcat for PSMA (His-PSMA [2]): 0.6 s⁻¹

Compound: FITC-labeled monomeric WQPDTAHHWATL peptide: fluorescently labeled peptide made by coupling FITC to the C-terminus of the monomeric peptide (WQPDTAHHWATL-{FITC′})
cell binding above background autofluorescence ([3]; FITC-labeled peptide at 1, 5, 10, 50 μM): could not be observed at any of the tested concentrations
peptide concentration at which cell binding could be visualized ([3]; FITC-labeled peptide tested at 1, 5, 10, 50 μM, 1% fetal bovine serum media, 1 hr): > 50 µM

Compound: QMARIPKRLARHK-biotin [reference compound]
binding to immobilized PSMA compared to BSA (PSMA): no specific binding to immobilized PSMA compared to BSA

inhibition of PSMA in LNCaP cell lysates [4]: inhibited
Compound: WQPDTAHHWATL-OH
